{
  "source": "patent EP4725956A1",
  "about": "“MODIFIED POLYPEPTIDE AND USE THEREOF IN FIELD OF ANALGESIA” (Nanjing Anji Biotechnology Co., Ltd., priority 2023, dated 2024)",
  "key": {"[1]": {"biological_target": "α7 nAChR (Homo sapiens, UniProt P36544)", "experiment": "BLI (biolayer interferometry) affinity of peptides to α7 nAChR", "type": "binding", "parameters": "inferred from the 'similar' procedure on NTA sensors", "details": "NTA sensor, α7 nAChR 20 µg/mL, peptide 1.372-1000 nM in PBS", "procedure,_shortened": "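Target protein immobilised on NTA biosensors from PBS at 5 µg/mL (α9) or 20 µg/mL (α7). Peptides run in PBS as threefold series from 1000 nM to 1.372 nM with a PBS blank, 5-minute association and 5-minute dissociation; KD from fitted ka and kd.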"}, "[2]": {"tested_on": "rat paclitaxel-induced chronic chemotherapy pain model", "experiment": "Rat paclitaxel chemotherapy pain model, different doses (Example 6)", "type": "in vivo", "protocol": "Male SPF (Specific Pathogen Free) SD rats weighing 180-200 g (Shanghai Institute of Planned Parenthood Research, Experimental Animal Department) were purchased and allowed to acclimate for approximately one week. On the day of model induction, rats were weighed, and baseline mechanical pain thresholds were measured. Animals with large differences in body weight or pain threshold were excluded, and the remaining rats were subjected to the experimental protocol. Paclitaxel powder was dissolved in olive oil to 1 mg/mL. Each rat received an intraperitoneal injection of 2 mg/kg per dose. Four injections were administered on days 1, 3, 5, and 7. Rats in the negative control or vehicle control group received injections of the solvent used to dissolve paclitaxel. […] Starting from day 15 after model induction, drugs were administered daily for consecutive days. On days 1, 4, 7, 12, and 14 of treatment, mechanical pain thresholds of the right hind paw at the corresponding time were measured at 2 h, 4 h, 6 h, and 8 h after dosing using a blunt probe. […]. […] Table 5 Dosing Scheme for Screening Analgesic Activity of Selected Modified Peptides at Different Doses in the Paclitaxel Chemotherapy Pain Model"}, "[3]": {"tested_on": "rat paclitaxel-induced chronic chemotherapy pain model", "experiment": "Rat paclitaxel chemotherapy pain model, same dose (Example 5)", "type": "in vivo", "protocol": "Male SPF (Specific Pathogen Free) SD rats weighing 180-200 g (Shanghai Institute of Planned Parenthood Research, Experimental Animal Department) were used. On the day of model induction, rats were weighed, and baseline mechanical pain thresholds were measured. Animals with large differences in body weight or pain threshold were excluded, and the remaining rats were subjected to the experimental protocol. Paclitaxel powder was dissolved in olive oil to 1 mg/mL. Each rat received an intraperitoneal injection of 2 mg/kg per dose. Four injections were administered on days 1, 3, 5, and 7. Rats in the negative control or vehicle control group received injections of the solvent used to dissolve paclitaxel. […] The blank group in Table 4 represents rats without pain modeling, and the model group represents rats with pain modeling but no drug treatment. On days 1, 3, 5, and 12, drugs were administered at fixed times. On days 1, 3, and 5, mechanical pain thresholds of the right hind paw at the corresponding time were measured at 1 h, 2.5 h, 4 h, and 5.5 h after dosing using a blunt probe. On day 12, mechanical pain thresholds were measured at 4 h and 7 h after dosing. […] AJ003-36 and AJ003-40 were thus identified as candidate molecules for further study. Paclitaxel is a widely used small-molecule chemotherapy drug that, while effective against tumors, can induce neuropathic pain in many cancer patients due to neurotoxicity. The chronic chemotherapy pain model induced in male SD rats via multiple low-dose intraperitoneal injections of paclitaxel simulates clinical chemotherapy-induced neuropathic pain. Using this model, the analgesic effects of five modified peptides, the parent peptide AJ003, and the positive control pregabalin were evaluated. […] Table 4 Dosing Scheme for Screening Analgesic Activity of Selected Modified Peptides at the Same Dose in the Paclitaxel Chemotherapy Pain Model"}, "[4]": {"tested_on": "mouse diabetic neuropathic pain model", "experiment": "Mouse diabetic neuropathic pain model (Example 10)", "type": "in vivo", "protocol": "Except for the control group, the remaining male C57 mice (Hangzhou Ziyuan Experimental Animal Technology Co., Ltd.) were continuously fed a high-sugar, high-fat diet for approximately ten weeks. For the model group, mice were fasted overnight, and streptozotocin (STZ) (Sann Chemical Technology (Shanghai) Co., Ltd.) was dissolved in sodium citrate-citric acid buffer solution and intraperitoneally injected at a dose of 70 mg/kg. About two weeks after STZ injection, the mechanical pain threshold of mice was measured. Mice were placed on a perforated wire mesh for adaptation, and the plantar surface of the right hind paw was vertically stimulated with a blunt needle. Pain threshold data were collected using a biosignal acquisition system. Each mouse was measured three times, and the average value was calculated. Mice were then randomly assigned to groups based on their pain thresholds for drug administration.\nDay 1 of dosing: Drug administration was performed according to Table 9. Mechanical pain thresholds of the plantar surface were measured at 0 h, 2 h, 4 h, 6 h, and 8 h after administration."}},
  "note": "Positions of bridges follow the written chain, without caps; N, C: chain ends. Non-standard residues stand in square brackets, D forms with d. Residues, ends and D or L forms follow the SMILES beside them. Bip = N[C@@H](Cc1ccc(-c2ccccc2)cc1)C(=O)O; Hyp = O=C(O)[C@@H]1C[C@@H](O)CN1; Nle = CCCC[C@H](N)C(=O)O; Orn = NCCC[C@H](N)C(=O)O; Aib = CC(C)(N)C(=O)O",
  "data": [
    {"smiles": "CCCC[C@H](NC(=O)[C@@H](NC(=O)[C@H]1CSSC[C@H](NC(=O)[C@H](CO)NC(=O)CN)C(=O)N[C@@H](CO)C(=O)N[C@H]([C@H](C)O)C(=O)N2C[C@H](O)C[C@H]2C(=O)N2C[C@H](O)C[C@H]2C(=O)NC(C)(C)C(=O)N1)C(C)C)C(=O)N[C@@H](Cc1ccc(-c2ccccc2)cc1)C(=O)N[C@@H](CCCN)C(N)=O", "note": "[AJ003-36, GSCS-(D-Thr)-Hyp-Hyp-Aib-(D-Cys)-V-Nle-Bip-Orn-NH2 (3,9 disulfide bond)] (H-GSCS[dT][Hyp][Hyp][Aib][dC]V[Nle][Bip][Orn]-NH2; disulfide 3-9)", "values": [
      {"measurement": "Kd", "setting": "[1]", "value": 40.8, "unit": "nM"},
      {"measurement": "analgesic activity compared with the positive control pregabalin", "setting": "[2]; high dose 1.5 mg/kg s.c. vs pregabalin 30 mg/kg oral gavage", "value": "slightly superior to the positive control pregabalin"},
      {"measurement": "analgesic effect compared with the model group (mechanical pain threshold)", "setting": "[2]; high dose 1.5 mg/kg s.c., 8 h after dosing", "value": "remained significant"},
      {"measurement": "analgesic activity compared with the parent peptide AJ003", "setting": "[2]; low dose 0.5 mg/kg s.c. vs AJ003 1 mg/kg s.c.", "value": "comparable to that of AJ003 at 1 mg/kg"},
      {"measurement": "ranking among the five candidate modified peptides", "setting": "[3]; 1 mg/kg s.c.", "value": "top three analgesic candidates"},
      {"measurement": "analgesic activity (mechanical pain threshold)", "setting": "[3]; 1 mg/kg s.c., day 12, 7 h after dosing", "value": "prolonged analgesic activity lasting up to 7 h"},
      {"measurement": "analgesic efficacy compared with the positive control pregabalin", "setting": "[3]; peptide 1 mg/kg s.c. vs pregabalin 30 mg/kg oral gavage, overall", "value": "comparable in analgesic efficacy to pregabalin"},
      {"measurement": "analgesic activity compared with the model group (mechanical pain threshold)", "setting": "[4]; Day 1 of dosing, 2 h and 4 h, 1 mg/kg s.c. (low dose)", "value": "significant analgesic activity"},
      {"measurement": "analgesic activity compared with the model group (mechanical pain threshold)", "setting": "[4]; Day 1 of dosing, 2 h and 4 h, 2 mg/kg s.c. (AJ003; AJ003-36 medium dose)", "value": "significant analgesic activity"},
      {"measurement": "analgesic activity compared with the model group (mechanical pain threshold)", "setting": "[4]; Day 1 of dosing, 2 h and 4 h, 3 mg/kg s.c. (high dose)", "value": "significant analgesic activity"},
      {"measurement": "analgesic activity compared with the model group (mechanical pain threshold)", "setting": "[4]; Day 1 of dosing, 6 h and 8 h, 1 mg/kg s.c. (low dose)", "value": "significant analgesic activity"},
      {"measurement": "analgesic activity compared with the model group (mechanical pain threshold)", "setting": "[4]; Day 1 of dosing, 6 h and 8 h, 2 mg/kg s.c. (AJ003; AJ003-36 medium dose)", "value": "significant analgesic activity"},
      {"measurement": "analgesic activity compared with the model group (mechanical pain threshold)", "setting": "[4]; Day 1 of dosing, 6 h and 8 h, 3 mg/kg s.c. (high dose)", "value": "significant analgesic activity"},
      {"measurement": "analgesic activity compared with the model group (mechanical pain threshold)", "setting": "[4]; Day 4 of dosing, 2 h and 4 h, 1 mg/kg s.c. (low dose)", "value": "significant analgesic activity"},
      {"measurement": "analgesic activity compared with the model group (mechanical pain threshold)", "setting": "[4]; Day 4 of dosing, 2 h and 4 h, 2 mg/kg s.c. (AJ003; AJ003-36 medium dose)", "value": "significant analgesic activity"},
      {"measurement": "analgesic activity compared with the model group (mechanical pain threshold)", "setting": "[4]; Day 4 of dosing, 2 h and 4 h, 3 mg/kg s.c. (high dose)", "value": "significant analgesic activity"},
      {"measurement": "analgesic activity compared with the model group (mechanical pain threshold)", "setting": "[4]; Day 4 of dosing, 6 h and 8 h, 1 mg/kg s.c. (low dose)", "value": "significant analgesic activity"},
      {"measurement": "analgesic activity compared with the model group (mechanical pain threshold)", "setting": "[4]; Day 4 of dosing, 6 h and 8 h, 2 mg/kg s.c. (AJ003; AJ003-36 medium dose)", "value": "significant analgesic activity"},
      {"measurement": "analgesic activity compared with the model group (mechanical pain threshold)", "setting": "[4]; Day 4 of dosing, 6 h and 8 h, 3 mg/kg s.c. (high dose)", "value": "significant analgesic activity"},
      {"measurement": "analgesic activity compared with the model group (mechanical pain threshold)", "setting": "[4]; Day 8 of dosing, 2 h and 4 h, 1 mg/kg s.c. (low dose)", "value": "significant analgesic activity"},
      {"measurement": "analgesic activity compared with the model group (mechanical pain threshold)", "setting": "[4]; Day 8 of dosing, 2 h and 4 h, 2 mg/kg s.c. (AJ003; AJ003-36 medium dose)", "value": "significant analgesic activity"},
      {"measurement": "analgesic activity compared with the model group (mechanical pain threshold)", "setting": "[4]; Day 8 of dosing, 2 h and 4 h, 3 mg/kg s.c. (high dose)", "value": "significant analgesic activity"},
      {"measurement": "analgesic activity compared with the model group (mechanical pain threshold)", "setting": "[4]; Day 8 of dosing, 6 h and 8 h, 1 mg/kg s.c. (low dose)", "value": "no significant difference"},
      {"measurement": "analgesic activity compared with the model group (mechanical pain threshold)", "setting": "[4]; Day 8 of dosing, 6 h and 8 h, 2 mg/kg s.c. (AJ003; AJ003-36 medium dose)", "value": "significant analgesic activity"},
      {"measurement": "analgesic activity compared with the model group (mechanical pain threshold)", "setting": "[4]; Day 8 of dosing, 6 h and 8 h, 3 mg/kg s.c. (high dose)", "value": "significant analgesic activity"},
      {"measurement": "analgesic activity compared with the model group (mechanical pain threshold)", "setting": "[4]; Day 14 of dosing, 2 h and 4 h, 1 mg/kg s.c. (low dose)", "value": "significant analgesic activity"},
      {"measurement": "analgesic activity compared with the model group (mechanical pain threshold)", "setting": "[4]; Day 14 of dosing, 2 h and 4 h, 2 mg/kg s.c. (AJ003; AJ003-36 medium dose)", "value": "significant analgesic activity"},
      {"measurement": "analgesic activity compared with the model group (mechanical pain threshold)", "setting": "[4]; Day 14 of dosing, 2 h and 4 h, 3 mg/kg s.c. (high dose)", "value": "significant analgesic activity"},
      {"measurement": "analgesic activity compared with the model group (mechanical pain threshold)", "setting": "[4]; Day 14 of dosing, 6 h and 8 h, 1 mg/kg s.c. (low dose)", "value": "significant analgesic activity"},
      {"measurement": "analgesic activity compared with the model group (mechanical pain threshold)", "setting": "[4]; Day 14 of dosing, 6 h and 8 h, 2 mg/kg s.c. (AJ003; AJ003-36 medium dose)", "value": "significant analgesic activity"},
      {"measurement": "analgesic activity compared with the model group (mechanical pain threshold)", "setting": "[4]; Day 14 of dosing, 6 h and 8 h, 3 mg/kg s.c. (high dose)", "value": "significant analgesic activity"},
      {"measurement": "analgesic activity compared with pregabalin", "setting": "[4]; high dose 3 mg/kg s.c. vs pregabalin 60 mg/kg oral, over four administrations", "value": "slightly superior analgesic activity"}
    ]}
  ]
}
